Tests used:
[1] = test system: kidney from a donation after circulatory death donor of a rat; test: hypothermic oxygenated perfusion of rat donation-after-circulatory-death kidney ex-vivo, perfusion parameters (intrarenal resistance); settings: Examples 1-4: 200, 400, 600, 800 μM in KPS-1 solution, warm ischemia 30, 45, 60, 90 min, 0-4 °C, 30 mmHg, 2 h perfusion, FIGS. 2A-2D
Protocol: The method for performing hypothermic oxygenated perfusion on a kidney from a donation after circulatory death donor of a rat by using the perfusion fluid according to the examples of the present invention specifically includes the following steps: for a donor organ donated after a cardiac death, in the kidney acquisition process, performing in-situ organ lavage by using heparin sodium saline with a temperature of 4° C. to effectively remove thrombus in large blood vessels and to relieve the obstacle of the thrombus to the delivery of carbon monoxide released by carbon monoxide-releasing molecules to the kidney, combining ex-vivo hypothermic oxygenated perfusion with the carbon monoxide released by the carbon monoxide-releasing molecules to specifically achieve the vasodilation, the removal of microthrombus and the recovery of the patency of the microcirculation, and evaluating the function and quality of the kidney through perfusion parameters (perfusion flow and intrarenal resistance) and a macroscopic kidney state, wherein the perfusion parameters can reflect the kidney function to a certain degree; a kidney with a good function can be subjected to allogeneic kidney transplantation and a kidney with a poor function will be discarded. […]

[2] = test system: kidney from a donation after circulatory death donor of a rat; test: H&E pathological examination of renal tissues after 2 h of kidney perfusion; settings: Examples 1-4: 200, 400, 600, 800 μM in KPS-1 solution; warm ischemia 30, 45, 60, 90 min; after 2 h perfusion; FIGS. 3A-3D
Protocol: After 2 h of kidney perfusion according to the methods of Examples 1-4, 1 cm^3 of renal tissues were taken out and fixed in neutral formaldehyde for storage, and then dehydrated, embedded in paraffin, sectioned and then stained by H&E, and finally photographed under a microscope to observe morphological changes and pathological analysis of tissues.

**Q.** Which results are given for carbon monoxide-releasing molecules-401?
**A.** intrarenal resistance during hypothermic oxygenated perfusion ([1]; listed as carbon monoxide-releasing molecule): continuously decrease; intrarenal resistance during hypothermic oxygenated perfusion ([1]; listed as carbon monoxide-releasing molecules): significantly reduced and maintained to be stable; pathological examination of renal tissues (glomeruli, renal tubules, renal interstitium; H&E) [2]: no obvious abnormality found
